Patent publication US4432906A, “Inhibitors of SRS-synthesis” (Hoffmann-La Roche Inc., priority 1981, dated 1984)

Test system: SRS-A synthesis in rat peritoneal cells
Assay: Inhibition of the in vitro synthesis of SRS-A in rat peritoneal cells (ionophore A23187 challenge; SRS-A quantitated by guinea pig ileum bioassay)
Assay type: cell-based, rat (male Sprague-Dawley)
Conditions: for IC50: concentration of test drug which inhibits the synthesis of SRS-A by 50%, from plot of mean percent inhibition versus drug concentration; for inhibition at 10 µM: inhibition of SRS-A synthesis, 10 μM test drug, 10 min preincubation at 37° C., challenge with 5×10^-7 M ionophore A23187, mean percent inhibition
Description: Inhibition of the In Vitro Synthesis of SRS-A in Rat Peritoneal Cells
To study the effect of drugs on SRS-A synthesis in rat peritoneal cells, these cells (including mast cells, monocytes, eosinophils and neutrophils)were isolated from male Sprague-Dawley rats (Charles River Laboratories) weighing 180-220 g by the lavage procedure described by Herzig, D. G. and Dusner, E. J. Journal of Pharmacology and Experimental Therapeutics, 194, 457-460 (1975) with the exception that Hanks balanced salt solution used in these experiments was adjusted to pH 6.9 with 5% (V/V) of 0.1 M aqueous phosphate buffer and contained 50 mg/ml sodium heparin. After removal from the peritoneal cavity of rats, the cells were subsequently isolated by centrifugation at 400×gravity for 10 minutes at 4° C. and resuspended to a concentration of about 2,000,000 cells per ml in Hanks buffer.
Samples for evaluation were prepared by adding various concentrations of test drugs to 2 ml aliquots of resuspended cells in Hanks buffer. The 2 ml samples used for control contained 2 ml aliquots of resuspended cells in Hanks buffer without drugs. All of the above samples (2 ml final volume) were preincubated at 37° C. for 10 minutes in the presence of varying concentrations of test drug prior to challenge with 5×10^-7 M ionophore A23187. This ionophore is disclosed in Burka and Flower, Br. J. Pharmacology 65: 35-41 (1979). Antibiotic A 23187 was used as a probe for the study of calcium and function in biological systems. After ionophore challenge, SRS-A was synthesized in the samples by the cells for 10 minutes (at 37° C.) after which this synthesis was terminated by placing the samples in a boiling water bath for 10 minutes followed by centrifugation at 2,000×g (10 minutes) at 4° C. to remove coagulated protein and cellular debris. The SRS-A present in the resulting supernatants was quantitated by a bioassay using a guinea pig ileum as described in Orange, and Austen, Adv. Immunol, 10:105-144 (1969). For this bioassay, a 1.5 cm segment of ileum was removed from animals weighing 300 to 400 g and resuspended in an organ bath containing 10 ml of Tyrodes solution with 10^-6 M atropine sulfate and 10^-6 M pyrilamine maleate. The bath was maintained at 37° C. and aerated with a mixture of 95% O2 and 5% CO2. The concentration of SRS-A in the experimental samples was determined by a comparison of isotonic contraction responses elicited by the samples with those obtained with varying amounts of an SRS-A standard procedures of Orange, R. R. and Austen, K. F. Adv. Immunol. 10:105-144 (1969) against histamine (1 unit of SRS-A being that amount which gives a contractile response similar to that of […]). […]
The mean percent inhibition [formula] at each concentration of the various test drugs was calculated. […]

IC50 | SMILES | inhibition at 10 µM
< 10 µM | CCCCCCCC/C=C\C(C)(C)/C=C\C/C=C\CCCC(=O)O [(all Z)-10,10-dimethyl-5,8,11-eicosatrienoic acid] | 100%
1 to 3 µM | CCCCC/C=C\C/C=C\C(C)(C)/C=C\C/C=C\CCCC(=O)O [(all Z)-10,10-dimethyleicosa-5,8,11,14-tetraenoic acid] | 99 ± 1%
